Test results as given in paper PMC6956804, “Potent antibacterial activity of MSI-1 derived from the magainin 2 peptide against drug-resistant bacteria” (Theranostics, 2020).
Read-outs that look alike come from different tables or passages of the source. Peptide text beside a SMILES is read from it.

How the values were obtained:
G- and G+ bacteria = assay: Antimicrobial activity, summary over the strains; type: cell-based; settings: MIC expressed in μM, compared with IC50 on eukaryotic cells
Procedure: A standard micro-broth serial dilution assay was used to measure MIC of peptides. MIC was obtained by a microplate reader at 600 nm. MBC was determined as previously described.

[1] = Calcein release from liposomes; settings: 4× MIC
Procedure: E. coli were mixed with different concentrations of MSI-1, incubated for 2 h, resuspended by PI solution (20 μg/ml), and ultimately subjected to flow cytometry for PI uptake assay. Calcein-loaded liposomes were prepared to imitate bacterial membrane. Serially diluted peptide was added into liposomes (1:1, v:v) after obtaining the fluorescence intensity at λex/λem=490/520 nm. Once MSI-1 addition, fluorescence intensity was detected at 0, 3, 5, 10, 15 and 20 min. Calcein release rate was calculated as previously described. To observe bacterial morphology, E. coli treated with MSI-1 (32 μg/ml) or PBS for 2 h was collected, fixed by 2.5% glutaraldehyde and subjected to scanning electron microscopy (SEM) assay (SUI510, Hitachi, Japan). In addition, E. coli were resuspended in reaction buffer (60 mM Na2HPO4^. 7H2O, 40 mM NaH2PO4^. H2O, 10 mM KCl, 1 mM MgSO4.7H2O, 0.27% 2-Mercaptoethanol), incubated with ONPG (2.5 mg/ml) and MSI-1 for 2 h. Bacteria envelope integrity was calculated by the percentage of O-nitrophenol production.

[2] = system: Penicillin-resistant E. coli; assay: Local E. coli infection in scalded mouse model; type: in vivo, mice; settings: for subeschar colonies reduced to: topical once a day
Procedure: (§1) To further investigate whether MSI-1 could protect from bacterial infection of the skin, mice were anesthetized with pentobarbital sodium (50 mg/kg, i.p) and shaved on the dorsal surfaces. The depilated skin was secured with 2-cm-diameter plastic containers that filled up with boiling water at contact time 10 s. Afterwards, a full-thickness wound (2 cm in diameter) was cut on the burned skin of each mouse. Penicillin-resistant E. coli suspension (100 µl, 1× 10^10 CFU/ml) was slowly inoculated over wound with a pipette tip, and a gentle stream of air was aimed over the inoculation site until skin appeared wet but absent of any standing volume from the inoculum suspension. Two hours later, vehicle (3% CMC-Na), MSI-1 or polymyxin, which was suspended in sterile CMC-Na (3%) in PBS at concentration of 10, 5, 2.5 mg/ml (MSI-1) or 5 mg/ml (polymyxin), was inoculated on the same area with a pipette tip, 1 ml/kg, once a day (n=15 per group). Mice were fed in cages individually to avoid cross infection and were treated daily for 7 consecutive days. At 3rd and 7th days, cutaneous wound healing and bacteria counts in skin lesion were measured. Moreover, 12 h after the last treatment, blood samples were collected from the retro-orbital venous plexus under anesthesia (pentobarbital sodium, 50 mg/kg). Finally, all animals were euthanized by cervical dislocation to collect the lung samples for counting live bacteria. The contents of TNF-α and IL-6 in skin homogenates and serum were measured by ELISA. Skin lesion was fixed by 4% paraformaldehyde for H&E staining. The expression levels of EGF and VEGF in skin lesion were examined by immunohistochemistry. In addition, the wound scratch assay was also performed on HaCaT cells to further test whether MSI-1 improved wound healing by promoting keratinocyte migration.

[3] = system: P. aeruginosa (penicillin resistant, levofloxacin sensitive); assay: Resistance study, serial passages; type: cell-based; settings: serial passages at 1/4× MIC; ratio of MIC to that of first-time exposure
Procedure: (§2) P. aeruginosa and E. coli, which were penicillin resistant but levofloxacin sensitive strains, were exposed to MSI-1, polymyxin and levofloxacin for MIC determination. Resistance study was performed as described previously.

[4] = system: E. coli (penicillin resistant, levofloxacin sensitive); assay: Resistance study, serial passages; type: cell-based; settings: serial passages at 1/4× MIC; ratio of MIC to that of first-time exposure
Procedure: as §2

HaCaT cells = assay: Wound scratch assay; type: cell-based; settings: cell scratch assay
Procedure: as §1, with “Finally, all animals were euthanized by cervical dislocation to collect the lung samples for counting live bacteria.” left out, “Skin lesion was fixed by 4% paraformaldehyde for H&E staining. The expression levels of EGF and VEGF in skin lesion were examined by immunohistochemistry. In addition, the wound scratch assay was also performed on HaCaT cells to further test whether MSI-1 improved wound healing by promoting keratinocyte migration.” left out

[5] = 20% fresh mouse serum, turbidimetry
Source text: (§4) At indicated time points, samples were denatured with equal volumes of 6 M urea and subjected to HPLC analysis or antibacterial activity evaluation.

in vitro = settings: mouse, 20% fresh mouse serum
Source text: as §4

C57BL/6 mice = assay: Acute toxicity in mice; type: in vivo; settings: intraperitoneal, n=6/group
Procedure: C57BL/6 mice (n=6/group) were intraperitoneally injected with MSI-1 (0, 10, 20, 40, 80 and 100 mg/kg/body weight, respectively). Animals were inspected for adverse effects for 30 min, and survival was monitored for 12 h thereafter. The toxicity severity was classified as Malik U et al previously described.

pepsin = pepsin (Sus scrofa, UniProt P00791); settings: peptide:protease 300:1, 0.1 M NH4HCO3 pH 8.2, room temperature, HPLC; peak time shifted from 6.187 to 6.792 min (0.5 h)
Sequence of pepsin (P00791 60-385): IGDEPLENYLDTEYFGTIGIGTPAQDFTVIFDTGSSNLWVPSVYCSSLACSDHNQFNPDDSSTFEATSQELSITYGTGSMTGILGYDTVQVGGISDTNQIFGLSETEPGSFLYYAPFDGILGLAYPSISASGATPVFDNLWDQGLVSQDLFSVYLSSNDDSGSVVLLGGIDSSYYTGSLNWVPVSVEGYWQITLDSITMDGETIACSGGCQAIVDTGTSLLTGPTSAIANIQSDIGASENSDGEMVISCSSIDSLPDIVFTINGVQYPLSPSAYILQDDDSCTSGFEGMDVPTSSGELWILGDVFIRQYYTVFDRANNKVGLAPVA
Source text: (§5) Aliquots of the mixture were extracted periodically and diluted with water/acetonitrile (3:2, v:v) containing 2% TFA for HPLC detection or for antibacterial activity assay [18].

Plasma stability = type: in vitro ADME, mouse; settings: for antibacterial activities after plasma incubation: turbidimetry
Source text: as §4

trypsin = assay: in vitro; settings: pH 8.2
Source text: as §5

[6] = system: ndm-1-carrying recombinant E. coli; assay: Time-killing assay; type: cell-based; settings: 4× MIC, time-kill curve
Procedure: (§3) Bacteria were incubated with MSI-1, penicillin G sodium salt, vancomycin or methicillin at 4× MIC. Samples were removed at 0, 0.5, 1, 2, 4, and 8 h for bacterial counts.

[7] = system: S. epidermidis (methicillin-resistant); assay: Time-killing assay; type: cell-based; settings: 4× MIC, time-kill curve
Procedure: as §3

[8] = 37 °C for up to 7 days, multigelation at -80 °C for 10 times or boiling at 100 °C for 1 h; HPLC and antibacterial activity
Procedure: MSI-1 were placed at 37 °C for 7 days, repeated multigelation at -80 °C for 10 times or boiled at 100 °C for 1 h, and then subjected to HPLC analysis or antibacterial activity evaluation as above.

Structure (SMILES): CC[C@H](C)[C@H](NC(=O)CN)C(=O)N[C@@H](Cc1c[nH]c2ccccc12)C(=O)N[C@@H](CCCCN)C(=O)N[C@@H](Cc1ccccc1)C(=O)N[C@@H](CC(C)C)C(=O)N[C@@H](CCCCN)C(=O)N[C@@H](CCCCN)C(=O)N[C@@H](C)C(=O)N[C@@H](CCCCN)C(=O)N[C@@H](CCCCN)C(=O)N[C@@H](Cc1ccccc1)C(=O)N[C@@H](Cc1c[nH]c2ccccc12)C(=O)N[C@@H](CCCCN)C(N)=O [MSI-1] (H-GIWKFLKKAKKFWK-NH2)
- effective antimicrobial concentration in vitro (G- and G+ bacteria): 4.4 to 8.8 µM
- leakage of Calcein [1]: over 80%
- TNF-α and IL-6 in skin lesion homogenate ([2]; 10 mg/kg, 7th day, ELISA): strongly reduced
- subeschar colonies reduced to ([2]; 10 mg/kg, after 3 days): 38.6%
- subeschar colonies reduced to ([2]; 10 mg/kg, after 7 days): 49%
- wound closure ([2]; 3rd and 7th days, especially at 10 mg/kg): significantly improved wound closure
- bacterial colonies in the lung and blood ([2]; 7th day, MSI-1 5 and 10 mg/kg, polymyxin B, p<0.01 vs the model group): obviously decreased
- expression of EGF and VEGF in the burned and infected skin ([2]; immunohistochemistry): no obvious effect
- relative MIC after 15 subcultures [3]: remained stable
- relative MIC after 15 subcultures [4]: remained stable
- migration of HaCaT cells (HaCaT cells): could not promote the migration
- inhibition rate against bacteria after serum incubation ([5]; 0.5 h): 76.8%
- inhibition rate against bacteria after serum incubation ([5]; 2 h): 46.9%
- remaining at 0.5 h, 1.6 mg/ml (in vitro): 92.5%
- remaining at 2 h, 1.6 mg/ml (in vitro): 53.5%
- adverse events (C57BL/6 mice; 20 mg/kg): no immediate adverse events
- adverse effects at approximately 5 min post injection (C57BL/6 mice; dose of peptide above 40 mg/kg): one mouse in the MS-1-treated group exhibited narrowing of the eyes
- stability in pepsin solution (pepsin): some peptide hydrolysates might be produced
- remaining at 0.5 h, 1.6 mg/ml (Plasma stability; 20% fresh mouse plasma, 37 °C, 0.5 h, HPLC, read-out: remaining peptide): ~77%
- remaining peptide (Plasma stability; 20% fresh mouse plasma, 37 °C, 2 h, HPLC): ~67.5%
- antibacterial activities after plasma incubation (Plasma stability; 20% fresh mouse plasma, 0.5 h): 97.2%
- antibacterial activities after plasma incubation (Plasma stability; 20% fresh mouse plasma, 2 h): 60.7%
- bacteriostatic activity (Plasma stability; either mouse plasma or serum, post 2 h coincubation (summary in the discussion)): approximately 50%
- remaining at 2 h, 1.6 mg/ml (Plasma stability; fresh mouse plasma or serum (one summary value for both), either mouse plasma or serum, post 2 h coincubation (summary in the discussion), read-out: remaining peptide): 60%
- remaining at 0.5 h (trypsin): < 10%
- time to thorough elimination of the bacteria [6]: ≤ 4 h
- reduction in CFU counts [7]: approximately 5 log units
- time to thorough bacteria elimination [7]: ≤ 240 min
- thermal stability [8]: maintained its structure and potent antimicrobial activity
